Measured values published in article PMC11943016, “TBG096 Ameliorates Memory Deficiency in AD Mouse Model via Promoting Neurogenesis and Regulation of Hsc70/HK2/PKM2/LAMP2A Signaling Pathway” (International Journal of Molecular Sciences, 2025).

Assays:
[1] = test system: AMPK, p-AMPK, Hsc70, PKM2, HK2, LAMP2A, APP, Tau, p-Tau, Aβ oligomers; assay: Western blot of cerebral cortex of HFD-induced AD mice; format: in vivo
Text: (§1) In experiments with the HFD-induced AD mouse model, a total of 60 Institute of Cancer Research (ICR) male mice aged 4 weeks from Zhejiang Academy of Medical Sciences (Hangzhou, China) were used for animal experiments (permit number: ZJU20230121). The animals were provided free access to a chow diet and water. […] The HFD and normal diet were alternated every two days to maintain freshness. Weekly measurements were taken for water intake, food intake, and body weight. In the eighteenth week, the mice underwent Y-maze and NOR tests. The Morris water maze test was conducted during the nineteenth week. After confirming the successful establishment of the AD model characterized by cognitive impairment, oral administration of treatments commenced. […] Each group had 10 mice.
Approximately 50 mg of cerebral cortex from brain tissues was homogenized in RIPA lysis buffer containing 1% protease inhibitor and 1% phosphatase inhibitor. Then, the sample was centrifuged at 12,000 rpm at 4 °C for 10 min, and the supernatant was transferred to a new tube. Protein concentrations were determined using the BCA kit, and 30 µg of protein from each sample was denatured by heating in water at 100 °C for 10 min. […] Finally, the strip was developed using chemiluminescence ECL reagent, and the blot density was quantified with ImageJ (National Institutes of Health, Bethesda, MD, USA).

PC12 cells [2] = assay: EdU cell proliferation in PC12 cells (inhibitor experiment); format: cell-based; conditions: 24 h
Experimental: In the inhibitor experiment of EdU cell proliferation activity, PC12 cells were seeded into each well of a 24-well plate as above for 24 h. Then, the medium in each well was replaced with 500 μL of serum-free […] containing VER155008 (inhibitor of Hsc70, 3 µM), or NH4Cl (inhibitor of lysosome, 250 µM) for 30 min according to the literature, and 500 μL of serum-free DMEM containing different samples was added and cultured for 24 h, respectively. After that, PC12 cells were treated with EdU for 2 h according to the operation steps of the BeyoClick™ EdU-488 cell proliferation detection kit (#C0071S, Beyotime Biotechnology, Shanghai, China). After cell labeling, the supernatant was removed. Then, PC12 cells were fixed, washed, and blocked, and the click reaction solution was added at room temperature for 30 min. After that, DAPI staining was performed for 10 min. Finally, PC12 cells were detected by fluorescence microscope (Olympus IX53, Tokyo, Japan).

HFD-induced AD mice = assay: Immunofluorescence staining of brain tissue of HFD-induced AD mice; format: in vivo
Text: as §1
At the end of animal experiments, three mice in each group were taken for heart perfusion with cold PBS and 4% paraformaldehyde. After that, the brains of mice were fixed with 4% paraformaldehyde for 24 h and gradually dehydrated with 15% and 30% sucrose solutions for 48 h, respectively. The fixed and embedded brain sample was placed in a cryostat and cut into 20 µm thick slices with a cryostat (Thermo Fisher, Waltham, MA, USA), and brain slices in the hippocampus and cortex were collected. Finally, the brain slices were placed in antifreeze (glycerol/ethylene/PBS = 3:3:4) and kept in a refrigerator at −30 °C until immunostaining. The brain slices were fixed on a glass slide and hydrated with PBS for 5 min. Then, blocking buffer was added to the brain slices and incubated at room temperature for 1 h. Brain slices were washed twice with PBS and incubated with anti-NeuN, anti-BrdU, anti-Iba1, anti-GFAP, anti-INOS, anti-APP, or anti-p-Tau at 4 °C for 24 h, respectively. Subsequently, the brain slices were incubated with secondary antibody (goat anti-rabbit IgG H&L (Alexa Fluor® 488) or rabbit anti-mouse IgG (Cy3 conjugate)) at room temperature for 2 h after washing with PBS three times. Finally, a cover glass was used to lightly cover the slices stained with DAPI. […] Biomarker proteins in the cerebral cortex and hippocampus were digitized by Image J software (National Institutes of Health, Bethesda, MD, USA).

PC12 cells [3] = assay: NGF-mimic activity: neurite outgrowth in PC12 cells; format: cell-based; conditions: 48 h
Experimental: The neurogenic activity of samples was evaluated according to the methods described in our previous study. Briefly, approximately 5 × 10^4 cells were seeded in each well of a 24-well microplate and were cultured under a humidified atmosphere with 5% CO2 at 37 °C for 24 h. Then, the medium in each well was replaced with 1 mL of serum-free DMEM containing 40 ng/mL NGF as a positive control, 0.5% DMSO as a negative control, and the test sample after 24 h, respectively. About 100–200 cells of each well were counted from a randomly selected area and repeated thrice after 48 h. A cell-bearing neurite outgrowth longer than the diameter of the cell body was identified as a positive cell. The activity was presented as the percentage of positive cells in the selected area.
In the inhibitor experiment of NGF-mimic activity, approximately 5 × 10^4 PC12 cells were seeded into each well of a 24-well plate and incubated for 24 h. After that, the medium in each well was replaced with 500 μL of serum-free DMEM or the serum-free DMEM containing VER155008, the inhibitor of Hsc70 protein, incubated in a CO2 incubator for 30 min. Subsequently, 500 μL of serum-free DMEM containing different samples was added and cultured, respectively. The PC12 cells with neurite outgrowth were recorded after 48 h. For the Western blot analysis, the experiment included five groups, namely the control (C) group, the NGF (40 ng/mL) group, the TBG096 (1 µM) group, the VER155008 (3 µM) group, and the VER155008 (3 µM) + TBG096 (1 µM) group. Afterwards, approximately 2 × 10^6 cells per dish were seeded into ten 6 cm Petri dishes with 5 mL of DMEM medium and incubated for 24 h. After giving different treatments with samples, the cells continued to culture for 4 h. Protein extraction was conducted to prepare for the subsequent Western blot analysis.

O=C(SCCCCCCSCCCC(F)(F)F)c1cccc(O)c1O [TBG096]
phosphorylated AMPK/AMPK, LAMP2A, Hsc70, HK2 and PKM2 protein levels [1]: returned to normal | APP, Tau, p-Tau, and Aβ oligomers protein expression ([1]; vs HFD): significantly reduced | EdU cell proliferation activity (PC12 cells [2]): promoting PC12 cell proliferation | APP and phosphorylation Tau protein in the hippocampus (HFD-induced AD mice; immunofluorescence): reduction | Iba1, GFAP, INOS markers (activated microglia, astrocytes, M1 macrophages) in the hippocampus (HFD-induced AD mice; vs HFD-only): significantly reduced | number of mature neurons (NeuN) in the cerebral cortex (HFD-induced AD mice; vs HFD-only group): increased numbers of mature neurons | percentage of PC12 cells exhibiting neurite growth (PC12 cells [3]; 0.3, 1, and 3 µM, listed as 3): superior activity | NGF-mimic effect after treatment with VER155008 (Hsc70 inhibitor) (PC12 cells [3]; PC12 cells): significantly diminished
